The values below come from article PMC7732020 (Nucleosides, nucleotides & nucleic acids, 2009).

Where two headings read alike, the source gives them in different places. A value given as a limit tells only on which side of the number the result lay.

Series [1] deals with HIV-1. Description: Anti-HIV-1 activity in human PBM cells. Type of series: cell-based. As to conditions: primary human PBM cells; for EC50: read-out: Anti-HIV-1 activity EC50; for EC90: read-out: Anti-HIV-1 activity EC90.
Series [2] has as its system human PBM cells.
A further series deals with HCV. Description: Anti-HCV activity in replicon assay Huh7 cells. Type of series: cell-based, hepatitis C virus. The following applies: for EC50: read-out: Anti-HCV activity EC50; for EC90: read-out: Anti-HCV activity EC90.
A further series has as its system Huh-7 Replicon cells. Description: Toxicity in Huh-7 Replicon cells. The following applies: read-out: CC50 (toxicity in Huh-7 Replicon cells); replicon assay Huh7 cells.
The subject of series [3] is HIV-1. The following applies: read-out: Anti-HIV-1 activity EC50; PBM cells; taken from literature; cited from earlier work.
In series [4] the test system is human PBM cells. The following applies: cited from earlier work.
The next series has as its system HIV. The following applies: isomeric adenine nucleosides with 2′-α-fluoro atom; cited from earlier work.

Turning to `Cc1cn([C@H]2C[C@H](N=[N+]=[N-])[C@@H](CO)O2)c(=O)[nH]c1=O` [AZT, reference compound], in the series on HIV-1 [1], the EC50 was 0.0026 µM and the EC90 is 0.01 µM. Also, the CC50 in the series with human PBM cells [2] was > 100 µM. The same compound gave a CC50 in the series with Vero cells of 56 µM.

As for `Nc1ncnc2c1ncn2[C@@H]1O[C@H](CO)[C@@H](F)[C@@H]1F` [Compound 20, 9-(2′,3′-Dideoxy-2′,3′-difluoro-β-D-arabinofuranosyl)adenine], the CC50 in the series with CEM cells is > 100 µM; in the series with human PBM cells [2], > 100 µM; in the series with Huh-7 Replicon cells, > 10 µM; with Vero cells it was > 100 µM. The EC50 is > 10 µM in the series on HCV and 0.72 µM in the series on HIV-1 [1]. Further, the EC90 in the series with HCV is > 10 µM; in the series on HIV-1 [1], 10.3 µM.

As to `Nc1nc(Cl)nc2c1ncn2[C@@H]1O[C@H](CO)[C@@H](F)[C@@H]1F` [Compound 22, 2-chloro-9-(2′,3′-dideoxy-2,3-difluoro-β-D-arabinofuranosyl)adenine], the CC50 is 70.2 µM in the series on CEM cells, 13.6 µM in the series on human PBM cells [2], > 10 µM with Huh-7 Replicon cells and > 100 µM in the series with Vero cells. Besides, the figures for the EC50 with HCV and with HIV-1 [1] were > 10 µM and 14.1 µM, respectively. Further, the EC90 is > 10 µM in the series with HCV and 46.3 µM in the series on HIV-1 [1].

For `Nc1ncnc2c1ncn2[C@@H]1O[C@H](CO)C[C@@H]1F` [2′-β-FddA, lodenosine], in the series with HIV-1 [3], the EC50 was 4.4 µM. Besides, in the series on human PBM cells [4], the CC50 is > 100 µM.

Regarding `Nc1ncnc2c1ncn2[C@@H]1O[C@H](CO)C[C@H]1F` [2′-α-FddA, 9-(2′,3′-dideoxy-2′-fluoro-β-D-erythro-pentofuranosyl)adenine], the antiviral activity result in the series on HIV is “without antiviral activity”.

On to `Nc1ncnc2c1ncn2[C@@H]1O[C@H](CO)[C@@H](F)[C@H]1F` [2′,3′-dideoxy-2′,3′-difluoro–adenosine], for which the antiviral activity entry in the series with HIV was “without antiviral activity”.

For the compound `C[C@@]1(O)[C@H](O)[C@@H](CO)O[C@H]1n1ccc(N)nc1=O` [Compound 2-C-Me-C, reference compound], in the series on HCV, the EC50 worked out at 1.3 µM and the EC90 amounted to 5.4 µM. Besides, in the series on Huh-7 Replicon cells, the CC50 was > 10 µM.
